Reference: patent US8933099B2, “Monocyclic pyridine derivative” (Eisai R&D Management Co., Ltd., priority 2013, dated 2015)
Like-named read-outs stand apart in the source and are kept apart here.

Assays:
[1] = test system: human stomach cancer cell line SNU-16 (FGFR2 gene amplification); assay: SNU-16 growth inhibition assay; type: cell-based
Method: In this assay, the growth inhibitory activity of a test substance in a human stomach cancer cell line harboring FGFR2 gene amplification is measured.
Then, 10 μL of Cell Counting Kit-8 (Dojindo Laboratories, CK04) was added to each well, and the resultant was incubated for 1 to 2 hours in a 5% CO2 incubator (37° C.) to cause a color reaction. The absorbance value was measured with ENVISION™ (PerkinElmer Co., Ltd.) at 450 nm.

[2] = test system: normal human umbilical vein endothelial cells (HUVEC); assay: HUVEC growth inhibition assay (VEGF-induced); type: cell-based
Method: The absorbance value was measured with ENVISION™ (PerkinElmer Co., Ltd.) at 450 nm. The absorbance values of the wells without adding the test substance but with VEGF addition was defined as 100% and the absorbance values of the wells with neither the test substance nor VEGF addition was defined as 0%.

[3] = Homo sapiens, SNU-16, 72 h, read-out: SNU-16 (IC50 (nM)), cell growth, 3 days, Cell Counting Kit-8
[4] = Homo sapiens, HUVEC, 72 h, read-out: HUVEC (IC50 (nM)), growth in the presence of VEGF 10 ng/mL, 3 days

CNC(=O)n1ccc2cc(Oc3ccnc(NC(=O)c4ccc(C5CCN(C)CC5)cc4)c3)c(OC)cc21 [Example 57]
IC50 [1, 3]: 7.6 nM | IC50 [2, 4]: 127 nM

CCN1CCC(c2ccc(C(=O)Nc3cc(Oc4cc5ccn(C(=O)NC)c5cc4OCCOC)ccn3)cn2)CC1 [Example 78]
IC50 [1, 3]: 6.2 nM | IC50 [2, 4]: 835 nM

CCOc1cc2c(ccn2C(=O)NC)cc1Oc1ccnc(NC(=O)c2ccc(C3CCN(C[C@H](C)O)CC3)cc2)c1 [Example 61]
IC50 [1, 3]: 10.7 nM | IC50 [2, 4]: 182 nM

CCOCCOc1cc2c(ccn2C(=O)NC)cc1Oc1ccnc(NC(=O)c2ccc(C3CCN(C[C@H](C)O)CC3)cc2)c1 [Example 112]
IC50 [1, 3]: 3.8 nM | IC50 [2, 4]: 202 nM

CNC(=O)n1ccc2cc(Oc3ccnc(NC(=O)c4ccc(CN5CC[C@H](O)C5)s4)c3)c(OCCOC)cc21 [Example 84]
IC50 [1, 3]: 6.2 nM | IC50 [2, 4]: 255 nM

CNC(=O)n1ccc2cc(Oc3ccnc(NC(=O)c4ccc(C5CCN(C[C@@H](C)O)CC5)cc4)c3)c(OC)cc21 [Example 54]
IC50 [1, 3]: 6.4 nM | IC50 [2, 4]: 86.7 nM

CCOCCOc1cc2c(ccn2C(=O)NC)cc1Oc1ccnc(NC(=O)c2ccc(CN3CCC(O)CC3)cc2)c1 [Example 115]
IC50 [1, 3]: 11.4 nM | IC50 [2, 4]: 616 nM

CNC(=O)n1ccc2cc(Oc3ccnc(NC(=O)c4ccc(CN5CCC(O)CC5)s4)c3)c(OC)cc21 [Example 38]
IC50 [1, 3]: 8 nM | IC50 [2, 4]: 137 nM

CCN1CCC(c2ccc(C(=O)Nc3cc(Oc4cc5ccn(C(=O)NC)c5cc4OCCCF)ccn3)cc2)CC1 [Example 33, 5-((2-(4-(1-Ethylpiperidin-4-yl)benzamide)pyridin-4-yl)oxy)-6-(3-fluoropropoxy)-N-methyl-1H-indole-1-carboxamide]
IC50 [1, 3]: 8.1 nM | IC50 [2, 4]: 274 nM

CNC(=O)n1ccc2cc(Oc3ccnc(NC(=O)c4ccc(CN5CCC[C@H]5CO)cc4)c3)c(OCCCOC)cc21 [Example 117]
IC50 [1, 3]: 16.6 nM | IC50 [2, 4]: 534 nM

CCOCCOc1cc2c(ccn2C(=O)NC)cc1Oc1ccnc(NC(=O)c2ccc(C3CN(C(C)C)C3)cc2)c1 [Example 103]
IC50 [1, 3]: 5.4 nM | IC50 [2, 4]: 296 nM

CNC(=O)n1ccc2cc(Oc3ccnc(NC(=O)c4ccc(CN5CCC(O)CC5)cc4)c3)c(OCCCOC)cc21 [Example 122]
IC50 [1, 3]: 11.3 nM | IC50 [2, 4]: 494 nM

CNC(=O)n1ccc2cc(Oc3ccnc(NC(=O)c4ccc(CN5CCC[C@H]5CO)cc4)c3)c(OC)cc21 [Example 51]
IC50 [1, 3]: 12.5 nM | IC50 [2, 4]: 410 nM

CCOCCOc1cc2c(ccn2C(=O)NC)cc1Oc1ccnc(NC(=O)c2ccc(CN3CCC[C@H]3CO)cc2)c1 [Example 29]
IC50 [1, 3]: 8.8 nM | IC50 [2, 4]: 600 nM

CNC(=O)n1ccc2cc(Oc3ccnc(NC(=O)c4ccc(C5CCN(CC(C)(C)O)CC5)cc4)c3)c(OC)cc21 [Example 39]
IC50 [1, 3]: 7.8 nM | IC50 [2, 4]: 124 nM

CNC(=O)n1ccc2cc(Oc3ccnc(NC(=O)c4ccc(C5(F)CCNCC5)cc4)c3)c(OC)cc21 [Example 7, 5-((2-(4-(4-Fluoropiperidin-4-yl)benzamide)pyridin-4-yl)oxy)-6-methoxy-N-methyl-1H-indole-1-carboxamide]
IC50 [1, 3]: 9.6 nM | IC50 [2, 4]: 205 nM

CNC(=O)n1ccc2cc(Oc3ccnc(NC(=O)c4cnn(C5CCN(C[C@H](C)O)CC5)c4)c3)c(OC)cc21 [Example 45]
IC50 [1, 3]: 15.5 nM | IC50 [2, 4]: 379 nM

CCN1CC(c2ccc(C(=O)Nc3cc(Oc4cc5ccn(C(=O)NC)c5cc4OCCOC)ccn3)cc2)C1 [Example 89]
IC50 [1, 3]: 6.5 nM | IC50 [2, 4]: 416 nM

CNC(=O)n1ccc2cc(Oc3ccnc(NC(=O)c4ccc(OC5CCN(CCO)CC5)cc4)c3)c(OC)cc21 [Example 14, 5-((2-(4-((1-(2-Hydroxyethyl)piperidin-4-yl)oxy)benzamide)pyridin-4-yl)oxy)-6-methoxy-N-methyl-1H-indole-1-carboxamide]
IC50 [1, 3]: 9.5 nM | IC50 [2, 4]: 169 nM

CNC(=O)n1ccc2cc(Oc3ccnc(NC(=O)c4ccc(CN5CCC(O)CC5)cc4)c3)c(OCCOC)cc21 [Example 93]
IC50 [1, 3]: 17.6 nM | IC50 [2, 4]: 887 nM

CCOCCOc1cc2c(ccn2C(=O)NC)cc1Oc1ccnc(NC(=O)c2ccc(CN3CCC[C@H]3CO)s2)c1 [Example 99]
IC50 [1, 3]: 6.3 nM | IC50 [2, 4]: 224 nM

CCN1CCN(Cc2ccc(C(=O)Nc3cc(Oc4cc5ccn(C(=O)NC)c5cc4OC)ccn3)s2)CC1 [Example 37]
IC50 [1, 3]: 9.4 nM | IC50 [2, 4]: 79.1 nM

CNC(=O)n1ccc2cc(Oc3ccnc(NC(=O)c4ccc(CN5CC[C@H](O)C5)cc4)c3)c(OCCCF)cc21 [Example 71]
IC50 [1, 3]: 17 nM | IC50 [2, 4]: 648 nM

CCOCCOc1cc2c(ccn2C(=O)NC)cc1Oc1ccnc(NC(=O)c2ccc(CN3CC[C@@H](O)C3)s2)c1 [Example 31]
IC50 [1, 3]: 4.7 nM | IC50 [2, 4]: 186 nM

CCOc1cc2c(ccn2C(=O)NC)cc1Oc1ccnc(NC(=O)c2ccc(C3CCN(C)CC3)cc2)c1 [Example 64]
IC50 [1, 3]: 10.3 nM | IC50 [2, 4]: 175 nM

CCOCCOc1cc2c(ccn2C(=O)NC)cc1Oc1ccnc(NC(=O)c2ccc(CN3CCC(F)CC3)cc2)c1 [Example 107]
IC50 [1, 3]: 22 nM | IC50 [2, 4]: 907 nM

CCOc1cc2c(ccn2C(=O)NC)cc1Oc1ccnc(NC(=O)c2ccc(N3CCC(N4CCCC4)CC3)cc2)c1 [Example 62]
IC50 [1, 3]: 27.4 nM | IC50 [2, 4]: 223 nM

CNC(=O)n1ccc2cc(Oc3ccnc(NC(=O)c4ccc(OC5CCN(C[C@@H](C)O)CC5)cc4)c3)c(OC)cc21 [Example 41]
IC50 [1, 3]: 9.3 nM | IC50 [2, 4]: 179 nM

CNC(=O)n1ccc2cc(Oc3ccnc(NC(=O)c4ccc(CN5CC[C@@H](O)C5)cc4)c3)c(OCCCF)cc21 [Example 72]
IC50 [1, 3]: 17.1 nM | IC50 [2, 4]: 681 nM

CCOCCOc1cc2c(ccn2C(=O)NC)cc1Oc1ccnc(NC(=O)c2ccc(CN3CCN(CC)CC3)cc2)c1 [Example 108]
IC50 [1, 3]: 14.7 nM | IC50 [2, 4]: 363 nM

CCOc1cc2c(ccn2C(=O)NC)cc1Oc1ccnc(NC(=O)c2ccc(C3CCN(C[C@@H](C)O)CC3)cc2)c1 [Example 60]
IC50 [1, 3]: 14.7 nM | IC50 [2, 4]: 178 nM

CCOCCOc1cc2c(ccn2C(=O)NC)cc1Oc1ccnc(NC(=O)c2ccc(CN3CC[C@@H](O)C3)s2)c1 [Example 100]
IC50 ([1]; read-out: SNU-16 (IC50 (nM)), cell growth, 3 days, Cell Counting Kit-8): 5.8 nM | IC50 ([2]; read-out: HUVEC (IC50 (nM)), growth in the presence of VEGF 10 ng/mL, 3 days): 207 nM

CNC(=O)n1ccc2cc(Oc3ccnc(NC(=O)c4ccc(C5CCN(C[C@@H](C)O)CC5)cc4)c3)c(OCCOC)cc21 [Example 90]
IC50 [1, 3]: 6.1 nM | IC50 [2, 4]: 203 nM

CNC(=O)n1ccc2cc(Oc3ccnc(NC(=O)c4ccc(CN5CC[C@H](O)C5)cc4)c3)c(OC)cc21 [Example 52]
IC50 [1, 3]: 14.4 nM | IC50 [2, 4]: 388 nM

CNC(=O)n1ccc2cc(Oc3ccnc(NC(=O)c4ccc(CN5C[C@@H](C)N[C@@H](C)C5)s4)c3)c(OC)cc21 [Example 36]
IC50 [1, 3]: 11 nM | IC50 [2, 4]: 136 nM

CNC(=O)n1ccc2cc(Oc3ccnc(NC(=O)c4ccc(C5CCN(C(C)C)CC5)cc4)c3)c(OC)cc21 [Example 40]
IC50 [1, 3]: 8.3 nM | IC50 [2, 4]: 162 nM

CCN1CCC(n2cc(C(=O)Nc3cc(Oc4cc5ccn(C(=O)NC)c5cc4OC)ccn3)cn2)CC1 [Example 13, 5-((2-(1-(1-Ethylpiperidin-4-yl)-1H-pyrazole-4-carboxamide)pyridin-4-yl)oxy)-6-methoxy-N-methyl-1H-indole-1-carboxamide]
IC50 [1, 3]: 10.9 nM | IC50 [2, 4]: 396 nM

CCOCCOc1cc2c(ccn2C(=O)NC)cc1Oc1ccnc(NC(=O)c2ccc(C3CCN(C(C)C)CC3)nc2)c1 [Example 94]
IC50 [1, 3]: 7.9 nM | IC50 [2, 4]: 607 nM
